Data published in the kinase profiling compilation of Christmann-Franck et al. (2016).

Legend:
Test in all cases: KINOMEscan competition binding
Details in all cases: compound 0.1 µM
[1] = system: ABL1 (human), P00519 [Q252H]
ACVR2B (human) = ACVR2B (human) (UniProt Q13705)
ANKK1 (human) = ANKK1 (human) (UniProt Q8NFD2)
BMX (human) = BMX (human) (UniProt P51813)
CAMK2A (human) = CAMK2A (human) (UniProt Q9UQM7)
CAMK2D (human) = CAMK2D (human) (UniProt Q13557)
CDK11B (human) = CDK11B (human) (UniProt P21127)
CDK16 (human) = CDK16 (human) (UniProt Q00536)
CHEK1 (human) = CHEK1 (human) (UniProt O14757)
CSNK1G1 (human) = CSNK1G1 (human) (UniProt Q9HCP0)
CSNK1G3 (human) = CSNK1G3 (human) (UniProt Q9Y6M4)
Sequence of CSNK1G3 (human) (Q9Y6M4 whole entry, looked up): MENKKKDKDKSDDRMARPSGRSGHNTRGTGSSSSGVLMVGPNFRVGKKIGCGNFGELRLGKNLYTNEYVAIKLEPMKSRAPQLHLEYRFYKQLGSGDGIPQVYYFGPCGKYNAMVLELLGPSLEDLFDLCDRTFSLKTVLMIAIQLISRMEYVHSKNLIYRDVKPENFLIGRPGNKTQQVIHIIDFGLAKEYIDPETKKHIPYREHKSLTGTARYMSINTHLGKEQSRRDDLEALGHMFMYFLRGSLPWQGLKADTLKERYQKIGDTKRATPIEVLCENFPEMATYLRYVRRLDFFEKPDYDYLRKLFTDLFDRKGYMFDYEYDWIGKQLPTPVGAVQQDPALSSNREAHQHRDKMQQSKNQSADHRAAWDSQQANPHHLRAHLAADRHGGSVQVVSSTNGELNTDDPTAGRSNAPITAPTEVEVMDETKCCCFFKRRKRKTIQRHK

CSNK2A1 (human) = CSNK2A1 (human) (UniProt P68400)
DCLK2 (human) = DCLK2 (human) (UniProt Q8N568)
Sequence of DCLK2 (human) (Q8N568 whole entry, looked up): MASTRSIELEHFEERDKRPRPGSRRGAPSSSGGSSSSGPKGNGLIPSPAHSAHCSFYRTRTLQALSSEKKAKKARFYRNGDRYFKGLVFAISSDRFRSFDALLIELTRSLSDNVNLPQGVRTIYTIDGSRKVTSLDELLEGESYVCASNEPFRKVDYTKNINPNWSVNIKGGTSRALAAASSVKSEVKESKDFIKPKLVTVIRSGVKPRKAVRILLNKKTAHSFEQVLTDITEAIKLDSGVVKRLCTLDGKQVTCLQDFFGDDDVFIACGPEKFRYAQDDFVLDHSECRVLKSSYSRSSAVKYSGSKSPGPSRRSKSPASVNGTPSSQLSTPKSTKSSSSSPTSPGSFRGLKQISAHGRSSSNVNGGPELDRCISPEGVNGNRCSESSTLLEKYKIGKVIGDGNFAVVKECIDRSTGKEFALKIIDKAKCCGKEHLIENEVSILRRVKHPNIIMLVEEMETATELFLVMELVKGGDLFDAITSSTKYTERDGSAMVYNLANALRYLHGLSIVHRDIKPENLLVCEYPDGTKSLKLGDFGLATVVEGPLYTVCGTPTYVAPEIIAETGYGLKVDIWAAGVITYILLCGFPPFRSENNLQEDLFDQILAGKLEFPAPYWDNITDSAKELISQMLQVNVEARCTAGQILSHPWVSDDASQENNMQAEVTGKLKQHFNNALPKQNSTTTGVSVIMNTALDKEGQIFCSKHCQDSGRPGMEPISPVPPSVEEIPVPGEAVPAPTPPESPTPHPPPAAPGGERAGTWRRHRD

DSTYK (human) = DSTYK (human) (UniProt Q6XUX3)
[2] = system: EGFR (human), P00533 [L861Q]
EIF2AK2 (human) = EIF2AK2 (human) (UniProt P19525)
Sequence of EIF2AK2 (human) (P19525 whole entry, looked up): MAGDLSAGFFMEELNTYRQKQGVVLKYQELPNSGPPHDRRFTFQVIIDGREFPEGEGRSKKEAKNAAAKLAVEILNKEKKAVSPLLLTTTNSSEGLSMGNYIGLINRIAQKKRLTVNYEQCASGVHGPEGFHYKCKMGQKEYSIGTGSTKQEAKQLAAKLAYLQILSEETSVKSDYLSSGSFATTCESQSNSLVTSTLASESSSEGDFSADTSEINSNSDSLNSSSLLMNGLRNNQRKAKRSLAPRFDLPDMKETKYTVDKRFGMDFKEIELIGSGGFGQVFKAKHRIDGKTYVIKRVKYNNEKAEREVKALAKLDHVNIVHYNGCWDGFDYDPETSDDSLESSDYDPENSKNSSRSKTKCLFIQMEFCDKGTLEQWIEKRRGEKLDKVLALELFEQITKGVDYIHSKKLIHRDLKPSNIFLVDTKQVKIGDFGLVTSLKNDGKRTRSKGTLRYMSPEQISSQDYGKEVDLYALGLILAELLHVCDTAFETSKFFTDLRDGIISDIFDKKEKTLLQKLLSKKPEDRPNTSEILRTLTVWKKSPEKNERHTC

EPHB2 (human) = EPHB2 (human) (UniProt P29323)
GSK3A (human) = GSK3A (human) (UniProt P49840)
[3] = biological target: JAK3 JH1 catalytic (human) (UniProt P52333)
[4] = system: KIT (human), P10721 [V559D/V654A]
MAP2K1 (human) = MAP2K1 (human) (UniProt Q02750)
Sequence of MAP2K1 (human) (Q02750 whole entry, looked up): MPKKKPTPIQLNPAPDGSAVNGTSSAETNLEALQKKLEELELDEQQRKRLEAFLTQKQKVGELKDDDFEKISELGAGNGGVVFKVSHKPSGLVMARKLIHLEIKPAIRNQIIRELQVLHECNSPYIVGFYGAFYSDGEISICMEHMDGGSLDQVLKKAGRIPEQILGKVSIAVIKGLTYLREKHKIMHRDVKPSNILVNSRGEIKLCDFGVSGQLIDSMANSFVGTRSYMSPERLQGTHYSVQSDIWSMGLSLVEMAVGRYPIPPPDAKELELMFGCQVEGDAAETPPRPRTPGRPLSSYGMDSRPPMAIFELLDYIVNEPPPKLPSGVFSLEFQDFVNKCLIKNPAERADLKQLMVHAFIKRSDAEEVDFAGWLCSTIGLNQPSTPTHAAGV

MARK2 (human) = MARK2 (human) (UniProt Q7KZI7)
MATK (human) = MATK (human) (UniProt P42679)
MYO3A (human) = MYO3A (human) (UniProt Q8NEV4)
NEK3 (human) = NEK3 (human) (UniProt P51956)
NEK6 (human) = NEK6 (human) (UniProt Q9HC98)
PAK2 (human) = PAK2 (human) (UniProt Q13177)
PI4KB (human) = PI4KB (human) (UniProt Q9UBF8)
[5] = system: PIK3CA (human), P42336 [H1047Y]
PIK3CD (human) = PIK3CD (human) (UniProt O00329)
PRKCE (human) = PRKCE (human) (UniProt Q02156)
RIPK2 (human) = RIPK2 (human) (UniProt O43353)
RPS6KA4 KD1 (human) = RPS6KA4 KD1 (human) (UniProt O75676)
RPS6KA6 KD2 (human) = RPS6KA6 KD2 (human) (UniProt Q9UK32)
Sequence of RPS6KA6 KD2 (human) (Q9UK32 whole entry, looked up): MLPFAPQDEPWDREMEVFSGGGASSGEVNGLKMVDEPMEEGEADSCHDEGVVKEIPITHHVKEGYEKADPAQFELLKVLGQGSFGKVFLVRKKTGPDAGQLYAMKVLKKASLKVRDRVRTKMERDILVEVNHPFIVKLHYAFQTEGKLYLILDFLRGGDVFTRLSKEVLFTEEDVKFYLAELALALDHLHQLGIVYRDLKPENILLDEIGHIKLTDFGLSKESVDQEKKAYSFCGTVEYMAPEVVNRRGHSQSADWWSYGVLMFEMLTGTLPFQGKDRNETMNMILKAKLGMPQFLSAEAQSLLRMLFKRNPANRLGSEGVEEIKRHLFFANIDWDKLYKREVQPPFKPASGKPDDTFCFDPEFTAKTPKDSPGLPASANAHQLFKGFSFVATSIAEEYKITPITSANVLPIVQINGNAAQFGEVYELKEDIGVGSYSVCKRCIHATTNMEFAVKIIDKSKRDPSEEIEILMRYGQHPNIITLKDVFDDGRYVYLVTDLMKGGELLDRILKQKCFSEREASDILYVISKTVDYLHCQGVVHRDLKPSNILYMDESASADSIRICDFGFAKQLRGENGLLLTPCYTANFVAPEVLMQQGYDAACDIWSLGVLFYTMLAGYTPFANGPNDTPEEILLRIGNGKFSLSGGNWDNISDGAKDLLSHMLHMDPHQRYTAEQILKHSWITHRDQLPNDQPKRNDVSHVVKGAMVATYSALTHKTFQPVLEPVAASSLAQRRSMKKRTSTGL

SBK1 (human) = SBK1 (human) (UniProt Q52WX2)
SNRK (human) = SNRK (human) (UniProt Q9NRH2)
STK4 (human) = STK4 (human) (UniProt Q13043)
Sequence of STK4 (human) (Q13043 whole entry, looked up): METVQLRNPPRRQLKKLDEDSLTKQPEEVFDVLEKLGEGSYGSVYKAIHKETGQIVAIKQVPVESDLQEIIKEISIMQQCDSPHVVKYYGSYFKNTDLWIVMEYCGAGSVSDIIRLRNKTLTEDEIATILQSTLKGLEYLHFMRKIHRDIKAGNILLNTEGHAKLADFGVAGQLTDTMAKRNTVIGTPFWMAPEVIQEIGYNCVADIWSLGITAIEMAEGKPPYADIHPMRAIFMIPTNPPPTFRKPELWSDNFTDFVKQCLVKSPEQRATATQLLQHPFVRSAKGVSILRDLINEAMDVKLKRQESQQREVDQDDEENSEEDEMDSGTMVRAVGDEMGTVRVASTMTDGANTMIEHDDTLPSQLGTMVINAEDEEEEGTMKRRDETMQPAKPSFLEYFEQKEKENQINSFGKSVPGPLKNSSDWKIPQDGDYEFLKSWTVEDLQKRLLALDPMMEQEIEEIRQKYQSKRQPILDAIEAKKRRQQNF

SYK (human) = SYK (human) (UniProt P43405)
ULK3 (human) = ULK3 (human) (UniProt Q6PHR2)
Sequence of ULK3 (human) (Q6PHR2 whole entry, looked up): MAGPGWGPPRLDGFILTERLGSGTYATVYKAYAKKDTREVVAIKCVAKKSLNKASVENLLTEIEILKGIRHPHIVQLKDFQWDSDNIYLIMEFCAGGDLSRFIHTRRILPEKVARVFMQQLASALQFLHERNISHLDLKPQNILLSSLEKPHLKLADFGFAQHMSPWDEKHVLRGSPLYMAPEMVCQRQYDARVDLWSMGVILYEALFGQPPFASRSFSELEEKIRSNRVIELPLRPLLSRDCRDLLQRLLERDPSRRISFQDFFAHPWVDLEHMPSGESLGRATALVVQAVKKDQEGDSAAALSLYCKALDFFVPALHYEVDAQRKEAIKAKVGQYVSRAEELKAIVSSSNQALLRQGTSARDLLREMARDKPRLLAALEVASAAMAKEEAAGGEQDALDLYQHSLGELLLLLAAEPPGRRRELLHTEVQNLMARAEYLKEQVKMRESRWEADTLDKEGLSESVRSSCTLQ

WNK3 (human) = WNK3 (human) (UniProt Q9BYP7)

Sequence of CAMK2A (human) (Q9UQM7 whole entry, looked up): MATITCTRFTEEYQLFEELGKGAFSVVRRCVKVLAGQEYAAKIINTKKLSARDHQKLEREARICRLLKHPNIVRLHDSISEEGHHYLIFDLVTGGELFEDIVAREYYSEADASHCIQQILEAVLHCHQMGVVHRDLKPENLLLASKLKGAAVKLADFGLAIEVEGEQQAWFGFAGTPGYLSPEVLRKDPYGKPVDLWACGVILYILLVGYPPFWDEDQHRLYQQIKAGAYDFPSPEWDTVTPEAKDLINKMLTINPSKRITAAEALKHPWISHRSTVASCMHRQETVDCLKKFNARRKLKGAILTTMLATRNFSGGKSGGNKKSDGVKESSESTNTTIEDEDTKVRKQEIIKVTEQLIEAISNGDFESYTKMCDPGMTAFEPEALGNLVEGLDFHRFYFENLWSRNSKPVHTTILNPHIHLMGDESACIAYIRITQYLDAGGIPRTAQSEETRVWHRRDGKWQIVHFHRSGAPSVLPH
Sequence of CAMK2D (human) (Q13557 whole entry, looked up): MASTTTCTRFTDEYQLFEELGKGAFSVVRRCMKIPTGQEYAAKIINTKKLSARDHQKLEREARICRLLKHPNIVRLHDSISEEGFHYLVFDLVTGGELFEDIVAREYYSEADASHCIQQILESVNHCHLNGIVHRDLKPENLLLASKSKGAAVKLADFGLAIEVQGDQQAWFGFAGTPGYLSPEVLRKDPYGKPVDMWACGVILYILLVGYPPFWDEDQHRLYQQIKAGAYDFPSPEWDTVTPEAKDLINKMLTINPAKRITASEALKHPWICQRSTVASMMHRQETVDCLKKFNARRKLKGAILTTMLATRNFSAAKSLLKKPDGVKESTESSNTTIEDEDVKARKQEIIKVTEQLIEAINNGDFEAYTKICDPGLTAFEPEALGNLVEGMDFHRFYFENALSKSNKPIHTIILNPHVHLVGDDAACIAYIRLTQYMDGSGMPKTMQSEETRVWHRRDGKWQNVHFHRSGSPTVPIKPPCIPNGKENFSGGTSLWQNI

CCc1ccc(C(=O)Nc2cc(CN3CCN(C)CC3)cc(C(F)(F)F)c2)cc1C#Cc1cnc2ccnn2c1
kinase still bound, per cent of control [1]: 100% | kinase still bound, per cent of control (ACVR2B (human)): 100% | kinase still bound, per cent of control (ANKK1 (human)): 100% | kinase still bound, per cent of control (BMX (human)): 100% | kinase still bound, per cent of control (CAMK2A (human)): 92% | kinase still bound, per cent of control (CAMK2D (human)): 78% | kinase still bound, per cent of control (CDK11B (human)): 100% | kinase still bound, per cent of control (CDK16 (human)): 100% | kinase still bound, per cent of control (CHEK1 (human)): 100% | kinase still bound, per cent of control (CSNK1G1 (human)): 85% | kinase still bound, per cent of control (CSNK1G3 (human)): 78% | kinase still bound, per cent of control (CSNK2A1 (human)): 100% | kinase still bound, per cent of control (DCLK2 (human)): 100% | kinase still bound, per cent of control (DSTYK (human)): 100% | kinase still bound, per cent of control [2]: 100% | kinase still bound, per cent of control (EIF2AK2 (human)): 83% | kinase still bound, per cent of control (EPHB2 (human)): 100% | kinase still bound, per cent of control (GSK3A (human)): 100% | kinase still bound, per cent of control [3]: 58% | kinase still bound, per cent of control [4]: 100% | kinase still bound, per cent of control (MAP2K1 (human)): 100% | kinase still bound, per cent of control (MARK2 (human)): 100% | kinase still bound, per cent of control (MATK (human)): 100% | kinase still bound, per cent of control (MYO3A (human)): 100% | kinase still bound, per cent of control (NEK3 (human)): 78% | kinase still bound, per cent of control (NEK6 (human)): 100% | kinase still bound, per cent of control (PAK2 (human)): 76% | kinase still bound, per cent of control (PI4KB (human)): 100% | kinase still bound, per cent of control [5]: 76% | kinase still bound, per cent of control (PIK3CD (human)): 74% | kinase still bound, per cent of control (PRKCE (human)): 94% | kinase still bound, per cent of control (RIPK2 (human)): 56% | kinase still bound, per cent of control (RPS6KA4 KD1 (human)): 93% | kinase still bound, per cent of control (RPS6KA6 KD2 (human)): 100% | kinase still bound, per cent of control (SBK1 (human)): 73% | kinase still bound, per cent of control (SNRK (human)): 75% | kinase still bound, per cent of control (STK4 (human)): 63% | kinase still bound, per cent of control (SYK (human)): 83% | kinase still bound, per cent of control (ULK3 (human)): 100% | kinase still bound, per cent of control (WNK3 (human)): 100%
